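Compound exposure: 48 hours, 5 concentrations, 96-well plates. GI50 = concentration required for 50% inhibition of growth.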 Active and inactive are the calls of the source. Cut-off read from the data, not from the text of the source: active = GI50 up to about 1.1 µM and inactive = higher.
Key:
Experiment in all cases: NCI-60 cell line screen, 48 h
[1] = tested on: CAKI-1
[2] = tested on: K562
[3] = tested on: SK-OV-3
[4] = tested on: NCI-H23
[5] = tested on: U-251
[6] = tested on: LOX IMVI
[7] = tested on: OVCAR-5
[8] = tested on: NCI-H522
[9] = tested on: COLO 205
[10] = tested on: KM12
[11] = tested on: CCRF-CEM
[12] = tested on: DLD-1
[13] = tested on: OVCAR-8
[14] = tested on: SN12C
[15] = tested on: UACC-257
[16] = tested on: HCT-15
[17] = tested on: RPMI-8226
[18] = tested on: Malme-3M
[19] = tested on: MDA-MB-231
[20] = tested on: MDA-MB-435

Compound | GI50 [1] | GI50 [2] | GI50 [3] | GI50 [4] | GI50 [5] | GI50 [6] | GI50 [7] | GI50 [8] | GI50 [9] | GI50 [10] | GI50 [11] | GI50 [12] | GI50 [13] | GI50 [14] | GI50 [15] | GI50 [16] | GI50 [17] | GI50 [18] | GI50 [19] | GI50 [20]
COc1cc2c(cc1OC(=O)CC(C)O)C1C(OC2=O)C(OC(C)=O)C=C2CCN(C)[C@H]21 (stereo partly specified) | 71.1 µM (inactive) | > 100 µM (inactive) | 15.9 µM (inactive) | 33.1 µM (inactive) | 24.2 µM (inactive) | 40.4 µM (inactive) | > 100 µM (inactive) | 97.7 µM (inactive) | 81.3 µM (inactive) | > 100 µM (inactive) | > 100 µM (inactive) | 69 µM (inactive) | 39.9 µM (inactive) | 38.6 µM (inactive) | > 100 µM (inactive) | – | – | – | – | –
CCCCCCCCCCCCCCCCCCCCCC(=O)Nc1ccn(C2OC(CO)C(O)C2O)c(=O)n1 (stereo unspecified) | > 31.6 µM (inactive) | > 50.6 µM (inactive) | > 54.6 µM (inactive) | 3.1 µM (inactive) | > 92.9 µM (inactive) | 9.89 µM (inactive) | > 61 µM (inactive) | > 100 µM (inactive) | > 54.2 µM (inactive) | > 100 µM (inactive) | 0.191 µM (active) | > 100 µM (inactive) | 12.4 µM (inactive) | > 60.8 µM (inactive) | > 100 µM (inactive) | > 96.2 µM | > 100 µM (inactive) | > 42.4 µM (inactive) | – | –
O=C1CCCC2COc3ccc(O)c1c32 (stereo unspecified) | – | > 100 µM (inactive) | > 100 µM (inactive) | > 100 µM (inactive) | > 100 µM (inactive) | – | > 100 µM (inactive) | > 100 µM (inactive) | > 100 µM (inactive) | > 100 µM (inactive) | > 100 µM (inactive) | > 100 µM (inactive) | > 100 µM (inactive) | > 100 µM (inactive) | > 100 µM (inactive) | > 100 µM | > 100 µM (inactive) | > 100 µM (inactive) | – | –
Clc1cccc2c1OCC1C(c3ccccc3)=NN(c3ccccc3)C21 (stereo unspecified) | – | 28.9 µM (inactive) | > 100 µM (inactive) | > 100 µM (inactive) | 38.9 µM (inactive) | 39.7 µM (inactive) | > 100 µM (inactive) | 45.4 µM (inactive) | > 100 µM (inactive) | 87.1 µM (inactive) | 32.2 µM (inactive) | > 100 µM (inactive) | 81.8 µM (inactive) | – | 67.3 µM (inactive) | – | 22.8 µM (inactive) | > 100 µM (inactive) | – | –
FC(F)(F)c1cccc(C2SCc3nc4ccccc4n32)c1 (stereo unspecified) | 55.2 µM (inactive) | 8.61 µM (inactive) | 26.8 µM (inactive) | 9.79 µM (inactive) | 62.7 µM (inactive) | – | 6.32 µM (inactive) | 17.6 µM (inactive) | > 100 µM (inactive) | 68.4 µM (inactive) | 32.8 µM (inactive) | 54.2 µM (inactive) | 59.3 µM (inactive) | > 100 µM (inactive) | 4.54 µM (inactive) | – | 12.9 µM (inactive) | > 100 µM (inactive) | – | –
O=c1oc2c(O)c(O)cc3c(=O)oc4c(O)c(O)cc1c4c23 [ELLAGIC ACID] | < 0.01 µM (active) | > 10 µM (inactive) | 73.1 µM (inactive) | 47.9 µM (inactive) | 27.9 µM (inactive) | 93.5 µM (inactive) | > 10 µM (inactive) | 24.1 µM (inactive) | > 10 µM (inactive) | > 10 µM (inactive) | > 10 µM (inactive) | > 10 µM (inactive) | 18.6 µM (inactive) | 38.1 µM (inactive) | > 10 µM (inactive) | 79.8 µM | > 10 µM (inactive) | > 10 µM (inactive) | – | –
NNC(=O)C(=O)N/N=C1\CCC(=O)CC1C(=O)CCC(=O)Nc1ccc(Cl)cc1 (stereo unspecified) | > 100 µM (inactive) | > 100 µM (inactive) | > 100 µM (inactive) | > 100 µM (inactive) | > 100 µM (inactive) | > 100 µM (inactive) | > 100 µM (inactive) | – | > 100 µM (inactive) | 64 µM (inactive) | > 100 µM (inactive) | > 100 µM (inactive) | > 100 µM (inactive) | > 100 µM (inactive) | > 100 µM (inactive) | 94.8 µM | > 100 µM (inactive) | > 100 µM (inactive) | – | –
COc1cc(C(O)C(=O)c2cnc3cc([N+](=O)[O-])ccc3n2)ccc1O (stereo unspecified) | > 100 µM (inactive) | > 100 µM (inactive) | > 100 µM (inactive) | – | > 100 µM (inactive) | 77.8 µM (inactive) | – | – | > 100 µM (inactive) | > 100 µM (inactive) | > 100 µM (inactive) | > 100 µM (inactive) | > 100 µM (inactive) | > 100 µM (inactive) | > 100 µM (inactive) | > 100 µM | > 100 µM (inactive) | > 100 µM (inactive) | – | –
C/C(=C1/N=C(c2cc([N+](=O)[O-])ccc2Cl)N(c2ccc(Br)cc2)C1=O)c1ccc(N(CCC#N)CCC#N)cc1C | 52.4 µM (inactive) | 7.78 µM (inactive) | > 100 µM (inactive) | 42.7 µM (inactive) | – | 7.5 µM (inactive) | 50.9 µM (inactive) | – | 32.2 µM (inactive) | 15.1 µM (inactive) | 12.3 µM (inactive) | 15.9 µM (inactive) | 43.5 µM (inactive) | 40.4 µM (inactive) | 57.5 µM (inactive) | 16.4 µM | 28.1 µM (inactive) | 77.8 µM (inactive) | – | –
OCSc1nn(CO)c(=S)s1 | 31.1 µM (inactive) | 20.7 µM (inactive) | 34.4 µM (inactive) | 20 µM (inactive) | 23.8 µM (inactive) | 18 µM (inactive) | 48.1 µM (inactive) | 17 µM (inactive) | 28.1 µM (inactive) | 18.7 µM (inactive) | 6.79 µM (inactive) | – | 10.5 µM (inactive) | 21.2 µM (inactive) | 23 µM (inactive) | 18.3 µM | 25.4 µM (inactive) | 22.5 µM (inactive) | 28.1 µM (inactive) | 18.4 µM (inactive)
COc1cc(CNc2nc3ccccc3nc2-c2cccs2)cc(OC)c1OC | 11.2 µM (inactive) | 17.6 µM (inactive) | 29.8 µM (inactive) | 14.5 µM (inactive) | 27.6 µM (inactive) | 17.7 µM (inactive) | 4.19 µM (inactive) | 14 µM (inactive) | 27.4 µM (inactive) | 31.4 µM (inactive) | 13.1 µM (inactive) | – | 14.3 µM (inactive) | 12.9 µM (inactive) | 34 µM (inactive) | 21.9 µM | 10.5 µM (inactive) | 17.9 µM (inactive) | 17.6 µM (inactive) | 21.7 µM (inactive)
Cc1ccc(NC(=O)C(=O)CC(=O)C2CCOC2=O)c(C)c1 (stereo unspecified) | > 100 µM (inactive) | > 100 µM (inactive) | > 100 µM (inactive) | > 100 µM (inactive) | > 100 µM (inactive) | > 100 µM (inactive) | > 100 µM (inactive) | > 100 µM (inactive) | > 100 µM (inactive) | > 100 µM (inactive) | > 100 µM (inactive) | > 100 µM (inactive) | > 100 µM (inactive) | > 100 µM (inactive) | > 100 µM (inactive) | > 100 µM | > 100 µM (inactive) | > 100 µM (inactive) | – | –
COc1cc(/C=C\c2ccc(Cl)cc2)cc(OC)c1OC | 0.384 µM (active) | 0.033 µM (active) | 0.228 µM (active) | 0.247 µM (active) | 0.231 µM (active) | 0.175 µM (active) | 26.3 µM (inactive) | 0.111 µM (active) | 0.443 µM (active) | 0.173 µM (active) | 0.0964 µM (active) | 0.319 µM (active) | 0.363 µM (active) | 0.508 µM (active) | 0.804 µM (active) | 0.196 µM | 0.143 µM (active) | 0.184 µM (active) | – | –
COc1cc2c3c(cc(Cl)nc3c1OC)C(O)(CC(=O)c1ccccc1)C(=O)N2 (stereo unspecified) | 17.5 µM (inactive) | 4.79 µM (inactive) | 17.4 µM (inactive) | 17 µM (inactive) | 17.1 µM (inactive) | 7.01 µM (inactive) | 19.1 µM (inactive) | 2.89 µM (inactive) | 24.3 µM (inactive) | 17.3 µM (inactive) | 1.64 µM (inactive) | – | 14 µM (inactive) | 6.79 µM (inactive) | 8.15 µM (inactive) | 21.5 µM | 2.55 µM (inactive) | 2.38 µM (inactive) | 13.8 µM (inactive) | 1.93 µM (inactive)
CCCCCC(O)(CCCCC)CCCCCCCCC1=C(O)C(=O)c2ccc(=O)[nH]c2C1=O | 11.2 µM (inactive) | 5.07 µM (inactive) | 15.9 µM (inactive) | 2.61 µM (inactive) | 4.72 µM (inactive) | 11.7 µM (inactive) | 20.3 µM (inactive) | 4.78 µM (inactive) | 17.9 µM (inactive) | 11 µM (inactive) | 5.62 µM (inactive) | 5.37 µM (inactive) | 9.06 µM (inactive) | 7.64 µM (inactive) | 3.64 µM (inactive) | 4.22 µM | 4.12 µM (inactive) | 3.75 µM (inactive) | – | –
C=C(C)[C@@H]1CCC2=C(CC[C@]3(C)[C@@H]([C@@H](CCC=C(C)C)C(=O)O)[C@H](O)C[C@@]23C)[C@@]1(C)CCC(=O)O [PORICOIC ACID G] | 83.6 µM (inactive) | 53.2 µM (inactive) | > 100 µM (inactive) | 87.3 µM (inactive) | 22.4 µM (inactive) | 61.2 µM (inactive) | 45.4 µM (inactive) | 44.2 µM (inactive) | 52.8 µM (inactive) | 47.4 µM (inactive) | 63.2 µM (inactive) | – | > 100 µM (inactive) | 52.4 µM (inactive) | > 100 µM (inactive) | 38.6 µM | 88.7 µM (inactive) | > 100 µM (inactive) | > 100 µM (inactive) | > 100 µM (inactive)
